Each molecule was assayed against T1, Histone deacetylase 8 (Homo sapiens, UniProt Q9BY41) (assay: Enzymatic Assay).
T1 sequence (Q9BY41 whole entry): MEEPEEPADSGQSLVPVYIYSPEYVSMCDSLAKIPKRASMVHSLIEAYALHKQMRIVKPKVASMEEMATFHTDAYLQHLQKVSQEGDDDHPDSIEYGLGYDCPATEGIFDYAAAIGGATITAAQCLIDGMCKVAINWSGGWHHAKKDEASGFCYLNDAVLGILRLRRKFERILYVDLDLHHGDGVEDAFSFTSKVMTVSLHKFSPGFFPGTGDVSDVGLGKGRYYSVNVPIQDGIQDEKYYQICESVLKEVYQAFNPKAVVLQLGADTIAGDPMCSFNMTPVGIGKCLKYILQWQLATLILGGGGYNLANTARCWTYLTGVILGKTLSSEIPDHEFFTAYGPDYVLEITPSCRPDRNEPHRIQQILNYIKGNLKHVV
Description: HDAC-Glo I/II Assay Kit was purchased from Promega Corporation (Madison, Wis.), including the following components: HDAC-Glo I/II Buffer (25 mM Tris buffer, pH 8.0, supplemented with 137 mM: NaCl, 2.7 mM KCl, 1% v/v Triton X-100 and 1 mM: MgCl2), luminogenic substrates Boc-GAK(Ac)-aminoluciferin (HDAC-Glo I/II substrate), proprietary developer reagent (containing trypsin). Assay:The HDAC8 reaction was performed at room temperature in white 384-well polystyrene, flat-bottom microtiter plate (Greiner Bio-one, Monroe, N.C.) in a final volume of 20 μL. Test compounds were first diluted serially in DMSO and 100 nL were transferred to the plate wells by Echo 550 (Labcyte, Sunnyvale, Calif.) before the addition of other reaction components. The final concentration of DMSO in the assay was 0.5%. The HDAC-Glo I/II assay reagent was prepared by rehydration of lyophilized HDAC-Glo I/II substrate in 10 mL. HDAC-Glo I/II assay buffer followed with the addition of 10 μL of developer reagent. 10 uL of 3 nM HDAC8 in the HDAC-Glo I/II assay buffer were first dispensed into the microliter plate containing the compounds and incubated at room temperature for 30 min. The reactions were initiated with the addition of 10 uL HDAC-Glo I/II assay reagent with Multidrop.
In the case of O=C(NO)C(Cc1ccccc1)N1C=CC2C(Cl)=NC=CC21 (stereo not drawn) [US10723705, No. I-0196], the IC50 is reported as “in the range around 375 nM”.
With O=C(NO)C(Cc1ccccc1)N1C=CC2C=C(Cl)C=NC21 (stereo not drawn) [US10723705, No. I-0195] the IC50 was “in the range around 375 nM”.
For O=C(NO)C(Cc1ccccc1)N1N=CC2C(Cl)=NC=CC21 (stereo not drawn) [US10723705, No. I-0055], the IC50 was “in the range around 375 nM”.

From BindingDB's records for patent US10723705 (Incyte, 2020)
